Test results: paper PMC11927431 (eGastroenterology, 2025)
Like-named read-outs stand apart in the source and are kept apart here.

Key:
CB1R = CB1R (Mus musculus, UniProt P47746); test: Radioligand saturation binding assay on brain membrane homogenates; settings: read-out: Kd ± S.E.M., 30°C, 60 min
[1] = 3 mg/kg; cited from earlier work

Sequence of CB1R (P47746 whole entry): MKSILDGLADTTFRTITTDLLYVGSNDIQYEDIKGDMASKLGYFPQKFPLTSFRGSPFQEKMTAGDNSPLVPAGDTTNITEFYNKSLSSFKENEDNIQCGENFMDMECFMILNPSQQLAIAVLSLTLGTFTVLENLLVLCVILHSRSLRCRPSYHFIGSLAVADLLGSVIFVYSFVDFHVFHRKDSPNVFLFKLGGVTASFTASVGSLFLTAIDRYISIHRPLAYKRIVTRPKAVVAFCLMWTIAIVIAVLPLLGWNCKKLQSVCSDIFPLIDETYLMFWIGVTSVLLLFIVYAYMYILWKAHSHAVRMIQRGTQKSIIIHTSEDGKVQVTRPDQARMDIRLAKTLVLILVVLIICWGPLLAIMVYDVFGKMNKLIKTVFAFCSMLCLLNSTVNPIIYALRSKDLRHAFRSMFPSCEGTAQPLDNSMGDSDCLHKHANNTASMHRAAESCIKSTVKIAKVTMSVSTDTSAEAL

Structure (SMILES) | Kd (CB1R; CB1^IEC-/- mouse brain membrane homogenate) | Kd (CB1R; CB1^f/f mouse brain membrane homogenate) | Anxiogenic behaviour [1]
CCCCCCC(C)(C)c1ccc([C@@H]2C[C@H](O)CC[C@H]2CCCO)c(O)c1 [[^3H]-CP55.940] | 1.7 nM | 1.68 nM | 
Cc1c(C(=O)NN2CCCCC2)nn(-c2ccc(Cl)cc2Cl)c1-c1ccc(Cl)cc1 [rimonabant] |  |  | induced significant anxiety
